Measurements as given in patent US20090286720A1, “PHARMACEUTICAL COMPOSITION FOR THE DIAGNOSIS, PREVENTION OR TREATMENT OF A TUMORAL PATHOLOGY COMPRISING AN AGENT MODULATING THE POLYMERIZATION STATE OF ACTIN” (priority 2001, published 2009).
Starred links: 1 amine or outer side, 2 acyl side, 3 side chain; linkers in the order of their positions; H or OH if unused. Non-standard residues stand in square brackets, D forms with d. Residues, ends and D or L forms follow the SMILES beside them. X1 = CC[C@H](C)[C@H](OC(=O)[C@@H](C)[C@@H](CC)N[*:1])C(=O)[*:2]; X2 = C[C@H](N[*:1])C(=O)C(C)(C)C(=O)[*:2]; NMeY = CN[C@@H](Cc1ccc(O)cc1)C(=O)O; NMeL = CN[C@@H](CC(C)C)C(=O)O; NMeV = CN[C@H](C(=O)O)C(C)C

Tests used:
[1] = system: EWS-Fli cells; assay: Morphological modification of EWS-Fli cells (actin filaments stained with phalloidin-FITC); format: cell-based, murine; conditions: FIG. 12
Method: The cells (5×10^3) were cultured on glass slides 10 mm in diameter and kept in culture for 24 hours. After fixation (3% paraformaldehyde) and permeabilization (0.2% TritonX100), the actin filaments of the cells were immunostained by phalloidin coupled to FITC. Untreated NIH3T3; NIH3T3 transfected by EWS-Fli (EF); EF incubated in the presence of 10 μM or 100 μM of jasplakinolide; EF incubated with 10 μM or 20 μM of D11 (FIG. 12).

[2] = system: actin; assay: In vitro measurement of actin polymerization by fluorescence anisotropy in EWS-Fli cell extracts; format: biochemical; conditions: dolastatin 11 added in the polymerization buffer of EWS-Fli cell extracts; deficit versus NIH3T3 extracts; FIG. 11
Method: Cell extracts of NIH3T3 cells or EWS-Fli cells were brought into the presence of actin Alexa 488 in a buffer G ([…] pH 8.1; 170 μM CaCl2; 170 μM DTT; 170 μM ATP). The polymerization reaction was triggered by addition of a buffer P (KCl 51 mM, MgCl2 1 mM and ATP 0.5 mM). Dolastatin (μM) was added to the cell extracts of the EWS-Fli cells at the same time as the buffer P. Polymerization of actin was monitored by fluorescence anisotropy on a Beacon 2000. The results obtained are illustrated in FIG. 11.

[3] = system: NIH3T3 cells; assay: Morphological modification of NIH3T3 cells (actin filaments stained with phalloidin-FITC); format: cell-based, murine; conditions: same concentrations (10 or 20 nM); FIG. 12
Method: The cells (5×10^3) were cultured on glass slides 10 mm in diameter and kept in culture for 24 hours. After fixation (3% paraformaldehyde) and permeabilization (0.2% TritonX100), the actin filaments of the cells were immunostained by phalloidin coupled to FITC. […]

[4] = system: NIH3T3 cells; assay: Toxicity of dolastatin-11 by MTT test on NIH3T3 cells; format: cell-based, murine; conditions: low concentrations (10 or 20 nM), FIG. 13
Method: (§1) The cells (10^4 per well) were cultured in 96-well plates in the presence of different concentrations of D11. Monitoring of the toxicity of D11 in relation to time was performed by means of an MTT test on the NIH3T3 cells (A) and the EWS-Fli cells (B). The results are illustrated in FIG. 13.

[5] = system: EWS-Fli cells; assay: Toxicity of dolastatin-11 by MTT test on EWS-Fli cells; format: cell-based, murine; conditions: low concentrations (10 or 20 nM), FIG. 13
Method: as §1

[6] = system: EWS-Fli cells; assay: Development of tumors in the nude mouse after subcutaneous injection of EWS-Fli cells; format: in vivo; conditions: nude mice, 10 μg/kg intravenous on 5th, 8th and 11th days after EWS-Fli cell injection, measured on 28th day; FIG. 14
Method: Twenty-four hours after irradiation (5 Gy) of the mice, the EWS-Fli cells (10^6) were inoculated via the subcutaneous route. The mice were then separated into two lots, with the first lot corresponding to the untreated mice and the second lot to the mice having received three injections of dolastatin 11 via the intravenous route (10 μg/kg) on the 5th, 8th and 11th days after injection of the EWS-Fli cells. […]

[7] = Survival of the mice (tolerated dose); conditions: intravenous

C/C1=C\[C@H](C)C[C@H](C)OC(=O)C[C@H](c2ccc(O)cc2)NC(=O)[C@@H](Cc2c(Br)[nH]c3ccccc23)N(C)C(=O)[C@H](C)NC(=O)[C@@H](C)C1 [jasplakinolide]
effect on the cytoskeleton ([1]; EWS-Fli cells incubated with 10 μM or 100 μM of jasplakinolide): effect

CC[C@H](C)[C@@H]1OC(=O)[C@@H](C)[C@@H](CC)NC(=O)[C@H](C)NC(=O)C(C)(C)C(=O)[C@H](C)NC(=O)[C@H](Cc2ccc(OC)cc2)N(C)C(=O)[C@H](C(C)C)N(C)C(=O)CNC(=O)[C@H](CC(C)C)N(C)C(=O)CNC1=O [dolastatin 11] (cyclo(A[X1]G[NMeL]G[NMeV][NMeY](Me)[X2]))
capacity of cell extracts to polymerize actin (fluorescence anisotropy) [2]: can compensate in part for this deficit | effect on the cytoskeleton ([1]; EWS-Fli cells incubated with 10 μM or 20 μM of D11): effect | contact structures between the cells ([1]; EWS-Fli cells, 10 or 20 nM): reestablished the contact structures between the cells | stress fibers and morphology of the cells ([1]; EWS-Fli cells, 10 or 20 nM): restored the stress fibers of the cells with a morphology close to that of NIH3T3 cells | morphology of NIH3T3 cells [3]: did not modify in the least | cytotoxicity or cytostaticity (MTT test) [4]: no cytotoxicity or cytostaticity effects were observed | cytotoxicity or cytostaticity (MTT test) [5]: no cytotoxicity or cytostaticity effects were observed | development of tumors [6]: markedly delayed | dose used (10 μg/kg) relative to the dose not affecting survival of the mice [7]: five times weaker than the dose not affecting survival of the mice
